Results on 41 compounds are retold here after patent US20210238136A1, “AZETIDINE DERIVATIVE, AND PRODRUG THEREOF” (DAIICHI SANKYO COMPANY, LIMITED, priority 2018, published 2021).

This experiment deals with activated T cells (CD4+ T cells from mouse spleen). The experiment can be described thus: 3H-thymidine uptake in activated T cells. The settings on record: T-cell; mouse spleen CD4+ T cells activated with Dynabeads Mouse T-Activator CD3/CD28; read-out: IC50 (3H-thymidine uptake, proliferation of activated T cells). In kind it is cell-based, mouse (C57BL/6J). On the procedure:
Effect of Test Substance on ^3H-Thymidine Uptake in Activated T Cells
The effect of test substance on ^3H-thymidine uptake by activation was evaluated using T cells from mouse spleen. The spleen was removed from euthanized C57BL/6J mice, and finely sliced, then triturated on a cell strainer (40 μm mesh), and cells were collected by centrifugation. The collected splenocytes were treated with Cold lyser containing 0.17 M NH4Cl for 5 minutes to hemolytically remove red blood cells and then washed. The resulting cells were used as the splenocytes. From the splenocytes, CD4+ T cells were isolated using an EasySep Mouse CD4+ T cell isolation kit (STEMCELL Technologies Inc.). The CD4+ T cells were seeded into 96-well round-bottom plates. To the plates, test substance or Vehicle was added, and Dynabeads Mouse T-Activator CD3/CD28 (Thermo Fisher Scientific Inc.) was added, then the cells were cultured at 37° C. under 5% CO2. After 24 hours of culture, ^3H-Thymidine (PerkinElmer Inc.) diluted with medium was added to each well, then the cells were further cultured at 37° C. under 5% CO2 overnight. To measure ^3H-Thymidine uptake into the nuclei of the cells, the cells were collected into filter plates UniFilter-96 GF/B (PerkinElmer Inc.) using a FilterMate Universal Harvester (PerkinElmer Inc.). The filter plates were placed in a dryer and left still for 2 hours or more. Then, scintillation cocktail MicroScint-O (PerkinElmer Inc.) was added to the plates, and radioactivity was measured with TopCount NXT (PerkinElmer Inc.). With the radioactivity of the test substance-free group set as 100% and the radioactivity of the non-activation group as 0%, the relative value (proliferation rate, % of vehicle) of the radioactivity of each well to which test substance was added was calculated. The value of % of vehicle was incorporated into analysis software Prism (Version 5.0, GraphPad Software), the “Nonlinear Regression Log (inhibitor) vs Reaction Variable Inclination” was selected, and then sigmoid fitting with restrictions of Bottom=0 and Top=100 was performed to calculate 50% inhibitory concentration (IC50).

Counter-ions that a name gives are not always drawn.

Turning to `N[C@@H](Cc1cccc(S(=O)(=O)N2CC(Oc3cccc(F)c3)(c3ccc(F)cc3)C2)c1)C(=O)O` [Example 1, (S)-2-Amino-3-(3-((3-(3-fluorophenoxy)-3-(4-fluorophenyl)azetidin-1-yl)sulfonyl)phenyl)propanoic acid], the IC50 came to 1.2 nM.
Regarding `N[C@@H](Cc1cccc(S(=O)(=O)N2CC(Oc3ccccc3C(F)(F)F)(c3ccccc3)C2)c1)C(=O)O` [Example 2], the IC50 was found to be 15 nM.
The value for `N[C@@H](Cc1cccc(S(=O)(=O)N2CC(Oc3cccc(Cl)c3)(c3ccccc3)C2)c1)C(=O)O` [Example 3, (S)-2-Amino-3-(3-((3-(3-chlorophenoxy)-3-phenylazetidin-1-yl)sulfonyl)phenyl)propanoic acid] was 3.1 nM; that for `N[C@@H](Cc1cccc(S(=O)(=O)N2CC(Oc3ccccc3F)(c3ccc(F)cc3)C2)c1)C(=O)O` [Example 4, (S)-2-Amino-3-(3-((3-(2-fluorophenoxy)-3-(4-fluorophenyl)azetidin-1-yl)sulfonyl)phenyl)propanoic acid] was 2.6 nM.
As to `N[C@@H](Cc1cccc(S(=O)(=O)N2CC(Oc3ccccc3Br)(c3ccccc3)C2)c1)C(=O)O` [Example 5, (S)-2-Amino-3-(3-((3-(2-bromophenoxy)-3-phenylazetidin-1-yl)sulfonyl)phenyl)propanoic acid], the IC50 was found to be 3.2 nM.
On to `N[C@@H](Cc1cccc(S(=O)(=O)N2CC(Oc3ccc(F)cc3)(c3ccc(F)cc3)C2)c1)C(=O)O` [Example 6, (S)-2-Amino-3-(3-((3-(4-fluorophenoxy)-3-(4-fluorophenyl)azetidin-1-yl)sulfonyl)phenyl)propanoic acid], for which the IC50 turned out to be 1.2 nM.
`N[C@@H](Cc1cccc(S(=O)(=O)N2CC(Oc3ccccc3Cl)(c3ccccc3)C2)c1)C(=O)O` [Example 7, (S)-2-Amino-3-(3-((3-(2-chlorophenoxy)-3-phenylazetidin-1-yl)sulfonyl)phenyl)propanoic acid]: the IC50 worked out at 4.1 nM.
The value for `N[C@@H](Cc1cccc(S(=O)(=O)N2CC(Oc3cccc(Br)c3)(c3ccccc3)C2)c1)C(=O)O` [Example 8, (S)-2-Amino-3-(3-((3-(3-bromophenoxy)-3-phenylazetidin-1-yl)sulfonyl)phenyl)propanoic acid] was 3 nM; that for `Cc1ccc(OC2(c3ccccc3)CN(S(=O)(=O)c3cccc(C[C@H](N)C(=O)O)c3)C2)cc1` [Example 9] was 4.3 nM; that for `N[C@@H](Cc1cccc(S(=O)(=O)N2CC(Oc3ccc(F)c(F)c3)(c3ccccc3)C2)c1)C(=O)O` [Example 10, (S)-2-Amino-3-(3-((3-(3,4-difluorophenoxy)-3-phenylazetidin-1-yl)sulfonyl)phenyl)propanoic acid] was 21 nM.
The value for `N[C@@H](Cc1cccc(S(=O)(=O)N2CC(Oc3ccc(F)c(Cl)c3)(c3ccccc3)C2)c1)C(=O)O` [Example 11] was 20 nM; that for `N[C@@H](Cc1cccc(S(=O)(=O)N2CC(Oc3ccc(C(F)(F)F)cc3)(c3ccccc3)C2)c1)C(=O)O` [Example 12] was 9.6 nM.
The value for `N[C@@H](Cc1cccc(S(=O)(=O)N2CC(Oc3cccc(F)c3)(c3ccccc3F)C2)c1)C(=O)O` [Example 13] was 3 nM.
For the compound `N[C@@H](Cc1cccc(S(=O)(=O)N2CC(Oc3ccc(F)cc3)(c3ccccc3F)C2)c1)C(=O)O` [Example 14], the IC50 worked out at 30 nM.
As to `NC(=O)c1cccc(OC2(c3ccccc3)CN(S(=O)(=O)c3cccc(C[C@H](N)C(=O)O)c3)C2)c1` [Example 15], the IC50 was 2.9 nM.
Turning to `N[C@@H](Cc1cccc(S(=O)(=O)N2CC(Cc3ccccc3)(c3ccccc3)C2)c1)C(=O)O` [Example 16], the IC50 worked out at 68 nM.
The value for `NC(=O)c1ccc(OC2(c3ccccc3)CN(S(=O)(=O)c3cccc(C[C@H](N)C(=O)O)c3)C2)cc1` [Example 17, (S)-2-Amino-3-(3-((3-(4-carbamoylphenoxy)-3-phenylazetidin-1-yl)sulfonyl)phenyl)propanoic acid hydrochloride] was 1.2 nM; that for `N#Cc1ccccc1OC1(c2ccccc2)CN(S(=O)(=O)c2cccc(C[C@H](N)C(=O)O)c2)C1` [Example 18, (S)-2-Amino-3-(3-((3-(2-cyanophenoxy)-3-phenylazetidin-1-yl)sulfonyl)phenyl)propanoic acid] was 2.9 nM; that for `N[C@@H](Cc1cccc(S(=O)(=O)N2CC(Oc3ccc(Br)cc3)(c3ccccc3)C2)c1)C(=O)O` [Example 19] was 3 nM.
On to `N#Cc1cccc(OC2(c3ccccc3)CN(S(=O)(=O)c3cccc(C[C@H](N)C(=O)O)c3)C2)c1` [Example 20], for which the IC50 turned out to be 3 nM.
Consider `N[C@@H](Cc1cccc(S(=O)(=O)N2CC(Oc3cccc(C(F)(F)F)c3)(c3ccccc3)C2)c1)C(=O)O` [Example 21], for which the IC50 was 2.5 nM.
Then `N[C@@H](Cc1cccc(S(=O)(=O)N2CC(Oc3cccnc3)(c3ccccc3)C2)c1)C(=O)O` [Example 22], with 8.7 nM.
Regarding `N[C@@H](Cc1cccc(S(=O)(=O)N2CC(Oc3ccncc3)(c3ccccc3)C2)c1)C(=O)O` [Example 23], the IC50 is 16 nM.
Then `N[C@@H](Cc1cccc(S(=O)(=O)N2CC(Oc3ccccc3)(c3ccccc3)C2)c1)C(=O)O` [Example 24], with 0.49 nM.
Then `CC(C)(C)CC1(Oc2ccccc2)CN(S(=O)(=O)c2cccc(C[C@H](N)C(=O)O)c2)C1` [Example 25], with 92 nM; and `N[C@@H](Cc1cccc(S(=O)(=O)N2CC(Oc3ccccc3)(c3cccc(F)c3)C2)c1)C(=O)O` [Example 26], with 2.5 nM; and `N[C@@H](Cc1cccc(S(=O)(=O)N2CC(Oc3ccccc3)(c3ccccc3F)C2)c1)C(=O)O` [Example 27], with 2.9 nM.
With `[2H]c1c([2H])c([2H])c(C2(Oc3cccc(F)c3)CN(S(=O)(=O)c3cccc(C[C@H](N)C(=O)O)c3)C2)c([2H])c1[2H]` [Example 28], the IC50 was 2.3 nM.
Then `N[C@@H](Cc1cccc(S(=O)(=O)N2CC(Oc3ccccc3)(C(F)(F)F)C2)c1)C(=O)O` [Example 29], with 180 nM; and `CC1(Oc2ccccc2)CN(S(=O)(=O)c2cccc(C[C@H](N)C(=O)O)c2)C1` [Example 30], with 1100 nM.
Then `N[C@@H](Cc1cccc(S(=O)(=O)N2CC(Oc3ccccc3)(C3CC3)C2)c1)C(=O)O` [Example 31], with 210 nM; and `N[C@@H](Cc1cccc(S(=O)(=O)N2CC(Oc3ccccc3)(c3nccs3)C2)c1)C(=O)O` [Example 32], with 11 nM.
Take `N[C@@H](Cc1cccc(S(=O)(=O)N2CC(Oc3ccccc3)(c3ccccn3)C2)c1)C(=O)O` [Example 33]: the IC50 turned out to be 7.8 nM.
Then `N[C@@H](Cc1cccc(S(=O)(=O)N2CC(Oc3ccccc3F)(c3ccccn3)C2)c1)C(=O)O` [Example 34], with 19 nM; and `N[C@@H](Cc1cccc(S(=O)(=O)N2CC(Oc3cccc(F)c3)(c3ccccn3)C2)c1)C(=O)O` [Example 35], with 17 nM; and `N[C@@H](Cc1cccc(S(=O)(=O)N2CC(c3ccccc3-c3ccccc3)C2)c1)C(=O)O` [Example 36], with 78 nM.
Take `Cc1ccccc1-c1ccccc1C1CN(S(=O)(=O)c2cccc(C[C@H](N)C(=O)O)c2)C1` [Example 37]: the IC50 is 85 nM.
`N[C@@H](Cc1cccc(S(=O)(=O)N2CC(Oc3ccccc3-c3ccccc3Cl)C2)c1)C(=O)O` [Example 38]: the IC50 worked out at 34 nM.
The value for `N[C@@H](Cc1cccc(S(=O)(=O)N2CC(OC3CC3)(c3ccccc3)C2)c1)C(=O)O` [Example 39] was 140 nM.
In the case of `N#Cc1ccc(OC2(c3ccccc3)CN(S(=O)(=O)c3cccc(C[C@H](N)C(=O)O)c3)C2)cc1` [Example 40], the IC50 was 2.2 nM.
Then `N[C@@H](Cc1cccc(S(=O)(=O)N2CC(Oc3ccc(F)cc3)(c3ccccn3)C2)c1)C(=O)O` [Example 43], with 8.6 nM.
